Molecular target: T1, human ENT1 (Homo sapiens, UniProt Q99808)
T1 construct: JAR cells expressing ENT1 were purchased from ATCC; host or cells: JAR cells
T1 sequence (Q99808 1-456): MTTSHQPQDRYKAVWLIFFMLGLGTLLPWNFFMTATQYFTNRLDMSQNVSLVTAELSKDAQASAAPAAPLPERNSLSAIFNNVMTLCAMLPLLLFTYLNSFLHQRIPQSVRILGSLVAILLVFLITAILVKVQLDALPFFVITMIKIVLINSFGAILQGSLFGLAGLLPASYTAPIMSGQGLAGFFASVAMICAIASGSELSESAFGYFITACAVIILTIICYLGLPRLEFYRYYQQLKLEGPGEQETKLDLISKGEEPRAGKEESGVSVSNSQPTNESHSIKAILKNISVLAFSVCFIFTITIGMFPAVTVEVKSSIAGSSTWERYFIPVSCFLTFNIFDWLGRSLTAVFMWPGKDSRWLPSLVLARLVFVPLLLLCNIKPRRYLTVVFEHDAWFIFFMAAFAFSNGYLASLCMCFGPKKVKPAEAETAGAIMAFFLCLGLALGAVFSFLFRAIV
Experiment: ENT1 binding assay (competition with Sahenta-DY647 on JAR cells)
Conditions: competition with SAHENTA-DY647 binding; IC50 categorized; read-out: Binding Assay IC50
Procedure, shortened: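 Whole-cell competition on JAR cells (native ENT1): 50,000 cells pre-incubated 30 min at 4 °C with compound in HBSS/10 mM Hepes/0.1% BSA, then 100 nM Sahenta-DY647 added for 30 min at 4 °C. After washing, fluorescence (Ex 630/Em 670 nm) read; IC50 from sigmoidal fit, averaged as pIC50.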

IC50 | SMILES
> 500 nM | COc1cc(COc2ncnc3c2ncn3[C@@H]2O[C@H](C)[C@@H](O)[C@H]2O)cc(OC)c1OC [Compound 382]
> 500 nM | C[C@H]1O[C@@H](n2cnc3c(OCc4ccc(-c5ccn(C)n5)cc4)ncnc32)[C@H](O)[C@@H]1O [Compound 383]
> 500 nM | C[C@H]1O[C@@H](n2cnc3c(NCc4ccc(-c5ccccn5)cc4)ncnc32)[C@H](O)[C@@H]1O [Compound 384]
> 500 nM | C[C@H]1O[C@@H](n2cnc3c(NCc4ccc(N5CCOCC5)cc4)ncnc32)[C@H](O)[C@@H]1O [Compound 385]
> 500 nM | CC(C)NC(=O)c1ccc(CNc2ncnc3c2ncn3[C@@H]2O[C@H](C)[C@@H](O)[C@H]2O)cc1 [Compound 386]
> 500 nM | C[C@H]1O[C@@H](n2cnc3c(NCc4ccc(N5CCCC5=O)cc4)ncnc32)[C@H](O)[C@@H]1O [Compound 387]
> 500 nM | C[C@H]1O[C@@H](n2cnc3c(NCc4ccc(OCCN(C)C)cc4)ncnc32)[C@H](O)[C@@H]1O [Compound 388]
> 500 nM | C[C@H]1O[C@@H](n2cnc3c(NCc4ccc(OC5CCOCC5)cc4)ncnc32)[C@H](O)[C@@H]1O [Compound 389]
> 500 nM | C[C@H]1O[C@@H](n2cnc3c(SCc4ccc(C(=O)N5CCCC5)cc4)ncnc32)[C@H](O)[C@@H]1O [Compound 390]
> 500 nM | C[C@H]1O[C@@H](n2cnc3c(SCc4ccc(S(=O)(=O)N5CCCC5)cc4)ncnc32)[C@H](O)[C@@H]1O [Compound 391]
> 500 nM | C[C@H]1O[C@@H](n2cnc3c(SCc4nc5ccccc5o4)ncnc32)[C@H](O)[C@@H]1O [Compound 392]
> 500 nM | C[C@H]1O[C@@H](n2cnc3c(SCc4cccnn4)ncnc32)[C@H](O)[C@@H]1O [Compound 393]
> 500 nM | C[C@H]1O[C@@H](n2cnc3c(SCc4ncccn4)ncnc32)[C@H](O)[C@@H]1O [Compound 394]
> 500 nM | C[C@H]1O[C@@H](n2cnc3c(SCc4nc(-c5ccc(F)cc5)no4)ncnc32)[C@H](O)[C@@H]1O [Compound 395]
> 500 nM | Cc1ccc2nc(CSc3ncnc4c3ncn4[C@@H]3O[C@H](C)[C@@H](O)[C@H]3O)cn2c1 [Compound 396]
> 500 nM | Cc1noc(CSc2ncnc3c2ncn3[C@@H]2O[C@H](C)[C@@H](O)[C@H]2O)n1 [Compound 397]
> 500 nM | Cc1nnc(CSc2ncnc3c2ncn3[C@@H]2O[C@H](C)[C@@H](O)[C@H]2O)o1 [Compound 398]
> 500 nM | C[C@H]1O[C@@H](n2cnc3c(COCc4ccccc4)ncnc32)[C@H](O)[C@@H]1O [Compound 399]
> 500 nM | C[C@H]1O[C@@H](n2cnc3c(OCCc4ccc(C(F)F)nc4)ncnc32)[C@H](O)[C@@H]1O [Compound 400]
> 500 nM | C[C@H]1O[C@@H](n2cnc3c(OCCc4ccc(=O)n(C)c4)ncnc32)[C@H](O)[C@@H]1O [Compound 401]
> 500 nM | C[C@H]1O[C@@H](n2cnc3c(OCCc4ccc(C#N)cn4)ncnc32)[C@H](O)[C@@H]1O [Compound 402]

IC50 | SMILES
> 500 nM | C[C@H]1O[C@@H](n2cnc3c(OCCc4cnc(CF)nc4)ncnc32)[C@H](O)[C@@H]1O [Compound 403]
> 500 nM | C[C@H]1O[C@@H](n2cnc3c(OCCc4cnc(C(F)F)nc4)ncnc32)[C@H](O)[C@@H]1O [Compound 404]
> 500 nM | O=[N+]([O-])c1ccc(COc2ncnc3c2ncn3[C@H]2C[C@H](O)[C@@H](CO)O2)cc1 [Compound 405]
> 500 nM | C[C@H]1O[C@@H](n2cnc3c(C(=O)N(C)Cc4ccc([N+](=O)[O-])cc4)ncnc32)[C@H](O)[C@@H]1O [Compound 406]
> 500 nM | C[C@H]1O[C@@H](n2cnc3c(NS(=O)(=O)Cc4ccc([N+](=O)[O-])cc4)ncnc32)[C@H](O)[C@@H]1O [Compound 407]
> 500 nM | C[C@H]1O[C@@H](n2cnc3c(OCCc4ccc([S+](C)[O-])cc4)ncnc32)[C@H](O)[C@@H]1O (some centres unmarked) [Compound 408]
> 500 nM | C[C@H]1O[C@@H](n2cnc3c(SCc4ccc(C(=O)O)cc4)ncnc32)[C@H](O)[C@@H]1O [Compound 409]
> 500 nM | C[C@H]1O[C@@H](n2cnc3c(SCc4ccc(C(=N)N)cc4)ncnc32)[C@H](O)[C@@H]1O [Compound 410]
> 500 nM | C[C@H]1O[C@@H](n2cnc3c(OCc4ccc([N+](=O)[O-])cc4)nccc32)[C@H](O)[C@@H]1O [Compound 411]
> 500 nM | C[C@H]1O[C@@H](n2cnc3c(NC(=O)c4ccc([N+](=O)[O-])cc4)ncnc32)[C@H](O)[C@@H]1O [Compound 412]
> 500 nM | C[C@H]1O[C@@H](n2cnc3c(=O)n(Cc4ccc([N+](=O)[O-])cc4)ccc32)[C@H](O)[C@@H]1O [Compound 415]
> 500 nM | C[C@H]1O[C@@H](n2cnc3c(-n4cc(-c5ccc([N+](=O)[O-])cc5)nn4)ncnc32)[C@H](O)[C@@H]1O [Compound 416]
> 500 nM | C[C@H]1O[C@@H](n2cnc3c(C(=O)NCc4ccccc4)ncnc32)[C@H](O)[C@@H]1O [Compound 417]
> 500 nM | C[C@H]1O[C@@H](n2cnc3c(C(=O)N4CCC(c5ccc([N+](=O)[O-])cc5)CC4)ncnc32)[C@H](O)[C@@H]1O [Compound 418]
> 500 nM | C[C@H]1O[C@@H](n2cnc3c(C(=O)N4CCC(c5ccc([N+](=O)[O-])cc5)C4)ncnc32)[C@H](O)[C@@H]1O (some centres unmarked) [Compound 419]
> 500 nM | C[C@H]1O[C@@H](n2cnc3c(-c4nc(-c5ccc([N+](=O)[O-])cc5)no4)ncnc32)[C@H](O)[C@@H]1O [Compound 420]
> 500 nM | C[C@H]1O[C@@H](n2cnc3c(-c4noc(-c5ccc([N+](=O)[O-])cc5)n4)ncnc32)[C@H](O)[C@@H]1O [Compound 421]
> 500 nM | C[C@H]1O[C@@H](n2cnc3c(C(=O)N4CCC4c4ccccc4)ncnc32)[C@H](O)[C@@H]1O (some centres unmarked) [Compound 422]
> 500 nM | C[C@H]1O[C@@H](n2c(NCC3COC3)nc3c(OCc4ccc(Cl)cc4)ncnc32)[C@H](O)[C@@H]1O [Compound 423]
> 500 nM | C[C@H]1O[C@@H](n2c(NCC3COC3)nc3c(OCc4ccc(OC(F)F)cc4)ncnc32)[C@H](O)[C@@H]1O [Compound 424]

Source: patent US20260184712A1, “Heterocyclic Compounds as ENT Inhibitors and Compounds for Use in the Treatment of Cancers” (iTeos Belgium SA, priority 2022, published 2026)
